Here are results for one compound from BindingDB's records for doi:10.1016/j.bmcl.2007.06.017 (Tanabe Research Laboratories Usa, 2007).

The term EC50 denotes the concentration needed to bring the measured effect to its halfway point. The low end stands for greater potency, the high end for weaker potency.

Molecules are shown by their SMILES.

This test concerns the target T1, Oxysterols receptor LXR-beta (Homo sapiens, UniProt P55055).
T1 sequence (P55055 whole entry): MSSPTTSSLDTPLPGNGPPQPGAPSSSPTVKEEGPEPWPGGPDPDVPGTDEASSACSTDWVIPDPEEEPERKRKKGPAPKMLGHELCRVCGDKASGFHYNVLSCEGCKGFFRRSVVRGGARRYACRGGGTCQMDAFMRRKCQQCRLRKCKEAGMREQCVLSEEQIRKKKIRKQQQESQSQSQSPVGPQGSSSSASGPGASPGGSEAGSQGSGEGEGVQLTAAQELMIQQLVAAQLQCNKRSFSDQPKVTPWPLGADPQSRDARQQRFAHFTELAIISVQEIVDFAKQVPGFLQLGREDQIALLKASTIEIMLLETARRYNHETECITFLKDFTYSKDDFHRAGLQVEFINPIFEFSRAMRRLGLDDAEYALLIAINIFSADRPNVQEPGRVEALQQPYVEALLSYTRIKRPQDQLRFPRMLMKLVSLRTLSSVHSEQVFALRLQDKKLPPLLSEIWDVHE
Briefly: HTRF Cofactor Peptide Recruitment Assay. The conditions noted are these: pH 7.5; 22 °C. The method, then: Polyhistidine-tagged human LXR ligand-binding domain was mixed with the test compound, biotin-SRC1 peptide, streptavidin-allophycocyanin, and europium labeled anti-polyhistidine antibody in reaction buffer, and the mixture was incubated in a 384-well assay plate format.

On to `CC(C)(C)OC(=O)n1c(-c2ccc(CCNS(=O)(=O)c3ccc(-c4ccccn4)s3)cc2)cc2ccccc21` [tert-butyl 2-[4-(2-{[5-(pyridin-2-yl)thiophene-2-]sulfonamido}ethyl)phenyl]-1H-indole-1-carboxylate], for which the EC50 amounted to 230 nM.
